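Five concentrations, 48 hours, 96-well plates. TGI: concentration producing complete growth inhibition.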
Columns and labels:
Assay in all cases: NCI tumour cell line growth inhibition, 48 h
CCRF-CEM leukemia = system: CCRF-CEM leukemia
DU-145 prostate = system: DU-145 prostate
HCC-2998 colon = system: HCC-2998 colon
HCT-15 colon = system: HCT-15 colon
HOP-62 NSCLC = system: HOP-62 NSCLC
HS 578T breast = system: HS 578T breast
HT29 colon = system: HT29 colon
K-562 leukemia = system: K-562 leukemia
KM12 colon = system: KM12 colon
LOX IMVI melanoma = system: LOX IMVI melanoma
MALME-3M melanoma = system: MALME-3M melanoma
NCI-H226 lung = system: NCI-H226 lung
OVCAR-8 ovarian = system: OVCAR-8 ovarian
PC-3 prostate = system: PC-3 prostate
SN12C renal = system: SN12C renal
SW-620 colon = system: SW-620 colon
T-47D breast = system: T-47D breast
U251 CNS = system: U251 CNS
UACC-257 melanoma = system: UACC-257 melanoma

## O=c1[nH]c(=S)n(-c2cccc3ccccc23)c(O)c1/C=C1\C=Nc2ccccc21
CCRF-CEM leukemia
  TGI: 5.35 µM
DU-145 prostate
  TGI: 3.55 µM
HCC-2998 colon
  TGI: 3.5 µM
HCT-15 colon
  TGI: 3.45 µM
HOP-62 NSCLC
  TGI: 10.7 µM
HS 578T breast
  TGI: 58.8 µM
HT29 colon
  TGI: 5.03 µM
K-562 leukemia
  TGI: 7.11 µM
KM12 colon
  TGI: 6.87 µM
LOX IMVI melanoma
  TGI: 3.81 µM
MALME-3M melanoma
  TGI: 5.8 µM
NCI-H226 lung
  TGI: 5.8 µM
OVCAR-8 ovarian
  TGI: 6.86 µM
PC-3 prostate
  TGI: 6.74 µM
SN12C renal
  TGI: 5.29 µM
SW-620 colon
  TGI: 6.73 µM
T-47D breast
  TGI: 19.3 µM
U251 CNS
  TGI: 5.45 µM
UACC-257 melanoma
  TGI: 5.51 µM

## CCOc1cc(/C=N\O)cc(/C=N/O)c1O
CCRF-CEM leukemia
  TGI: > 100 µM
DU-145 prostate
  TGI: > 100 µM
HCC-2998 colon
  TGI: > 100 µM
HCT-15 colon
  TGI: 92.6 µM
HOP-62 NSCLC
  TGI: > 100 µM
HS 578T breast
  TGI: > 100 µM
HT29 colon
  TGI: > 100 µM
K-562 leukemia
  TGI: > 100 µM
KM12 colon
  TGI: > 100 µM
LOX IMVI melanoma
  TGI: 71.9 µM
MALME-3M melanoma
  TGI: > 100 µM
NCI-H226 lung
  TGI: > 100 µM
OVCAR-8 ovarian
  TGI: 66.6 µM
PC-3 prostate
  TGI: > 100 µM
SN12C renal
  TGI: > 100 µM
SW-620 colon
  TGI: > 100 µM
T-47D breast
  TGI: 93.8 µM
U251 CNS
  TGI: 84.3 µM
UACC-257 melanoma
  TGI: > 100 µM
